Reference: patent US6747021B2, “Cryptophycin compound” (Eli Lilly and Company, priority 2000, dated 2004)
Where two headings read alike, the source gives them in different places.

How the values were obtained:
[1] = system: MAMMARY ADENOCARCINOMA-16/C/Adr; test: Early stage murine mammary adenocarcinoma-16/C/Adr subcutaneous tumor assay; assay type: in vivo; conditions: IV 20 mg/kg/inj days 1,3,5,7,9; total dose 100 mg/kg; C3H female mice
From the text: (§1) Inhibition of tumors transplanted into mice is an accepted procedure for studying the efficacy of antitumor agents (Corbett, et al., In vivo Methods for Screening and Preclinical Testing; Use of rodent solid tumors for drug discovery., In: Anticancer Drug Development Guide: Preclinical Screening, Clinical Trials, and Approval, B. Teicher (ed), Humana Press Inc., Totowa, N.J., Chapter 5, pages 75-99 (1997); (Corbett, et al., Int. J. Pharmacog., 33, Supplement, 102-122 (1995)). Murine tumors or human xenographs were implanted essentially as described by Corbett in In vivo Methods for Screening and Preclinical Testing; Use of rodent solid tumors for drug discovery. Briefly, the murine tumor or human xenograph was implanted subcutaneously using either 12-gauge trocar implants or counted number of cells. The location for the trocar insertion is midway between the axillary and inguinal region along the side of the mouse. The trocar is slipped approximately ¾ of an inch subcutaneously up toward the axilla before discharging the tumor fragment, and pinching the skin as the trocar is removed. Alternatively, human tumor cells prepared from a […] of donor tumors (5×10^6 cells) were implanted subcutaneously in a hind-leg of a male or female nude mouse (Charles River). Either a test compound in vehicle or vehicle alone was administered by intravenous bolus injection (iv), intraperitoneal injection (ip), or oral gavage (po). Each treatment group, as well as a group of untreated control animals, consisted of five animals per group in each experiment. Subcutaneous tumor response was monitored by tumor volume measurement performed twice each week over the course of the experiment (60-120 days). Body weights were taken as a general measure of toxicity. The subcutaneous tumor data were analyzed by determining the median tumor weight for each treatment group over the course of the experiment and calculating the tumor growth delay as the difference in days for the treatment versus the control tumors to reach a volume of either 500 or 1000 mm^3.
(§2) Cryptophycin-309 (309) was tested against a variety of murine and human tumors substantially as described supra. Cryptophycin-55 glycinate (55-GLY), Taxol, and Adriamycin (Adria) were also included in certain tests for purposes of comparison. Cryptophycin 55 glycinate is known in the art (WO 98/08505, Example 9) and has the following structure: [drawing 9]
(§3) Tumor Weight(mg)=(a×b^2)/2 where a=tumor length (mm) and b=tumor width (mm).
(§4) Tumor Growth Delay=T−C where T is the median time (days) required for the treatment group tumors to reach a predetermined size, and C is the median time (days) for the control group tumors to reach the same size. Tumor-free survivors are excluded from this calculation, and are tabulated separately (Tumor Free).
(§5) Log Kill=Tumor Growth Delay/(3.32)(Td)
(§6) where Tumor Growth Delay is as previously defined and Td is tumor volume doubling time (days), estimated from the best fit straight line from a log-linear growth plot of the control group of tumors in exponential growth (100-800 mg range)
(§7) %T/C mass—The treatment and control groups are measured when the control group tumors reach approximately 700 to 1200 mg in size (median group). The median tumor weight of each group is determined (including zeros). The T/C value in percent is an indication of antitumor effectiveness. A T/C≦42% is considered significant antitumor activity. A T/C<10% is considered to indicate highly significant antitumor activity.
(§8) Body Weight Loss Nadir—A body weight loss nadir (mean of group) of greater than 20% or drug deaths greater than 20% are considered to indicate an excessively toxic dosage in single course trials.
(§9) Activity Rating—the Activity Rating is derived from the Log Kill according to the following table: […]

[2] = system: COLON ADENOCARCINOMA 51/A; test: Early stage murine colon adenocarcinoma 51/A subcutaneous tumor assay; assay type: in vivo; conditions: IV 28 mg/kg/inj days 3,5,7,9,11; total dose 140 mg/kg; CDF female mice
From the text: as §1, §2, §3, §4, §5, §6, §7, §8, §9

[3] = system: HUMAN COLON ADENOCARCINOMA 15; assay type: in vivo; conditions: Balb/C SCID female mice
From the text: as §1, §2, §3, §4, §5, §6, §7, §8, §9

[4] = Toxicity relative to other cryptophycins (general statement); conditions: compared with other cryptophycins; no test described
[5] = IV 16.5 mg/kg/inj days 3,5,7,9,11, total dose 82.5 mg/kg
[6] = IV 25 mg/kg/inj days 3,5,7,9,11, total dose 125 mg/kg
[7] = IV 38 mg/kg/inj days 3,5,7,9,11, total dose 190 mg/kg

## COc1ccc(C[C@H]2NC(=O)/C=C/C[C@@H]([C@H](C)[C@@H](OC(=O)CN)[C@@H](Cl)c3ccccc3)OC(=O)[C@H](CC(C)(C)C)OC(=O)[C@H](C)CNC2=O)cc1Cl [Cryptophycin 309, Cryptophycin-309]
[1]
  % T/C MASS: 0%
  ACTIVITY RATING: ++++ (>2.8)
  DRUG DEATHS: 0/5
  GROWTH DELAY: 11 days
  LOG KILL: 3.0
  MEDIAN TUMOR WEIGHT: 0 mg
[2]
  % T/C MASS: 0%
  ACTIVITY RATING: +++ (2.0-2.8)
  DRUG DEATHS: 0/6
  GROWTH DELAY: 20.1 days
  LOG KILL: 2.4
  MEDIAN TUMOR WEIGHT: 0 mg
[3]; [5]
  % T/C MASS: 11%
  ACTIVITY RATING: +++ (2.0-2.8)
  DRUG DEATHS: 0/5
  GROWTH DELAY: 24.5 days
  LOG KILL: 2.5
  MEDIAN TUMOR WEIGHT: 126 mg
[3]; [6]
  % T/C MASS: 0%
  ACTIVITY RATING: ++++ (>2.8)
  DRUG DEATHS: 0/5
  GROWTH DELAY: 31.5 days
  LOG KILL: 3.2
  MEDIAN TUMOR WEIGHT: 0 mg
[3]; [7]
  % T/C MASS: 0%
  ACTIVITY RATING: ++++ (>2.8)
  DRUG DEATHS: 0/5
  GROWTH DELAY: 32.5 days
  LOG KILL: 3.3
  MEDIAN TUMOR WEIGHT: 0 mg
[4]
  toxicity: lower toxicity than other cryptophycins
